The results in this text go back to patent US6365753B1, “Phthalimides and herbicide containing the same as active component” (Mitsubishi Chemical Corporation, priority 1998, dated 2002).

Common to all, as to format: in vivo
One series concerns wheat. Kind of series: Foliar treatment test (3) post emergence application, crop injury. Particulars: 3.0 to 4.0-leaf stage, 0.125% X-77, 21st day, index. The method, then:
(§1) Volcanic ash soil from a field was put in a resin-made pot having an area of 200 cm^2. After fertilization, the seeds of Galim spurium, Brassica juncea, and wheat were cast on the soil and covered with the soil uniformly. Cultivation was continued in a greenhouse until the plants reached to the 3.0 to 4.0-leaf stage.
(§2) The emulsifiable concentrate comprising compound No. 5 of the present invention, comparative compound (B) or comparative compound (C) as an active ingredient which was prepared in accordance with Formulation Example 3 was diluted with water containing 0.125% of a spreading agent X-77 (trade name, Valent USA Co.) so that a spray of 250 L/ha might give a prescribed amount of the active ingredient. The diluted composition was uniformly sprayed to the Galium spurium plant, the Brassica juncea plant, and the wheat plant by means of a small-sized power pressure spray.
(§3) Thereafter, cultivation was continued in the greenhouse, and the herbicidal effect and the injury to the crop were examined on the 21st day from the treatment. The herbicidal effect and the injury to the crop were evaluated on the same criteria as in Test Example 4.

The test system of series [1] is Brassica juncea. Nature of the series: Foliar treatment test (3) post emergence application. Conditions: 3.0 to 4.0-leaf stage, 0.125% X-77, 21st day, index. On the procedure: as §1, §2, §3
A further series relates to Galium spurium. The series is described as above. Conditions: 3.0 to 4.0-leaf stage, 0.125% X-77, 21st day, index. The method, then: as §1, §2, §3
Series [2] has as its system Brassica juncea. Kind of series: Foliar treatment test (1) post-emergence application. Further: ranges in brackets are in %. Conditions: foliar treatment post-emergence at 1.0- to 2.0-leaf stage, 10 g/a active ingredient, 21st day from treatment; herbicidal index. On the procedure:
(§4) Volcanic ash soil from a field was put in a resin-made pot having an area of 200 cm^2. After fertilization, the seeds of Brassica juncea, Ipomoea purpurea, Echinochloa crus-galli and Alopeculus aequalis were cast on the soil and uniformly covered with the soil.
(§5) Cultivation was continued in a greenhouse, and when the weeds reached the 1.0- to 2.0-leaf stage, a prescribed amount of the emulsifiable concentrate comprising the compound of the invention as an active ingredient which was prepared in Formulation Example 3 as diluted with water was sprayed uniformly to the weeds by means of a small-sized power pressure spray to give 10 g of the active ingredient per are.
(§6) Thereafter, cultivation was further continued in the greenhouse, and the herbicidal effect was examined on the 21st day from the treatment. The results obtained are shown in Table 6 (the compound numbers in Table 6 correspond to those in Tables 1 and 2). The herbicidal effect was evaluated based on the same criteria as in Test Example 1.

The subject of another series is Ipomoea purpurea. The series is described as above. Conditions: foliar treatment post-emergence at 1.0- to 2.0-leaf stage, 10 g/a active ingredient, 21st day from treatment; herbicidal index. On the procedure: as §4, §5, §6
In series [3] the test system is Echinochloa crus-galli. Described as above. Particulars: foliar treatment post-emergence at 1.0- to 2.0-leaf stage, 10 g/a active ingredient, 21st day from treatment; herbicidal index. The method, then:
as §4, §5, §6

A further series deals with Alopeculus aequalis. The series is described as above. Conditions: foliar treatment post-emergence at 1.0- to 2.0-leaf stage, 10 g/a active ingredient, 21st day from treatment; herbicidal index. The method, then:
as §4, §5, §6

A further series has as its system Scirpus juncoides. Kind of series: Submerged treatment test. Further: ranges in brackets are in %. Particulars: 10 g/a active ingredient, treated 5th day from sowing, examined on the 2.8th day from treatment, herbicidal index. On the procedure: (§7) Alluvial soil from a paddy field was put in a resin-made pot having an area of 200 cm^2. After fertilization, an adequate amount of water was added, and the soil was puddled and leveled. Seeds of Echinochloa crus-galli, Monochoria vaginalis, Rotala indica and Scirpus juncoides were sowed within a layer 0.5 cm below the surface of the soil. Water was poured onto the soil to keep a water depth of 3.5 cm.
(§8) On the 5th day from the sowing, the emulsifiable concentrate containing the compound of the invention as an active ingredient which was prepared in Formulation Example 3 was diluted with water. A prescribed amount of the diluted composition was dropped to the water so as to give 10 g of the active ingredient per are.
(§9) Cultivation was continued in a greenhouse, and the herbicidal effect was examined on the […] from the treatment. The results obtained are shown in Table 4 (the compound numbers in Table 4 correspond to those in Tables 1 and 2). The herbicidal effect was evaluated in terms of herbicidal index based on Y(%) obtained from equation:
(§10) y=[1−(Weight of weeds above the ground in a treated pot)/(Weight of weeds above the ground in a non-treated pot)]×100 (%)

The test system of series [4] is Echinochloa crus-galli. Nature of the series: Submerged treatment test. Further: ranges in brackets are in %. Particulars: 10 g/a active ingredient, treated 5th day from sowing, examined on the 2.8th day from treatment, herbicidal index. On the procedure: as §7, §8, §9, §10
The test system of another series is Rotala indica. Nature of the series: Submerged treatment test. Further: ranges in brackets are in %. Conditions: 10 g/a active ingredient, treated 5th day from sowing, examined on the 2.8th day from treatment, herbicidal index. The method, then:
as §7, §8, §9, §10

For the next series, the system named is Monochoria vaginalis. Nature of the series: Submerged treatment test. Further: ranges in brackets are in %. Particulars: 10 g/a active ingredient, treated 5th day from sowing, examined on the 2.8th day from treatment, herbicidal index. The method, then:
as §7, §8, §9, §10

In the next series the test system is Chenopodium album. Nature of the series: Soil treatment test pre-emergence application. Further: ranges in brackets are in %. Conditions: 10 g/a active ingredient, 28th day from treatment, herbicidal index. The method, then: (§11) Volcanic ash soil from a field was put in a resin-made pot having an area of 200 cm^2. After fertilization, soil previously mixed uniformly with the seeds of Digitaria ciliaris, Setaria viridis, Chenopodium album and Polygonum lapathifolium was scattered on the soil. The emulsifiable concentrate comprising the compound of the invention as an active ingredient which was obtained in Formulation Example 3 was diluted with water, and a prescribed amount of the diluted composition was sprayed uniformly to the surface of the soil by means of a small-sized power pressure spray to give 10 g of the active ingredient per are.
(§12) Thereafter, cultivation was continued in a greenhouse, and the herbicidal effect was examined on the 28th day from the treatment. The results obtained are shown in Table 5 (the compound numbers in Table 5 correspond to those in Tables 1 and 2). The herbicidal effect was evaluated based on the same criteria as in Test Example 1.

In a further series the test system is Setaria viridis. Nature of the series: Soil treatment test pre-emergence application. Further: ranges in brackets are in %. Conditions: 10 g/a active ingredient, 28th day from treatment, herbicidal index. The method, then:
as §11, §12

The test system of a further series is Digitaria ciliaris. Nature of the series: Soil treatment test pre-emergence application. Further: ranges in brackets are in %. Particulars: 10 g/a active ingredient, 28th day from treatment, herbicidal index. On the procedure: as §11, §12
A further series deals with Polygonum lapathifolium. Nature of the series: Soil treatment test pre-emergence application. Further: ranges in brackets are in %. Particulars: 10 g/a active ingredient, 28th day from treatment, herbicidal index. On the procedure: as §11, §12
Wherever Herbicidal Effect Alopeculus sequalis is given: ranges in brackets are in %.
Wherever Herbicidal Effect Echinochloa crus-galli is given: ranges in brackets are in %.
Wherever Herbicidal Effect Ipompoea-purpurea is given: ranges in brackets are in %.

As to `CCO/N=C(/COc1cc(N2C(=O)c3ccccc3C2=O)c(F)cc1Cl)C(=O)OCC` [Comparative Compound (B)], the “Crop Injury Wheat” value with wheat (12.5 ga.i./ha) is 3 (20-29); in the series with wheat (25.0 ga.i./ha), 3 (20-29); in the series on wheat (50.0 ga.i./ha), 4 (30-39). Besides, the entries for the “Herbicidal Effect Brassica juncea” value with Brassica juncea [1] (12.5 ga.i./ha), in the series on Brassica juncea [1] (25.0 ga.i./ha) and with Brassica juncea [1] (50.0 ga.i./ha) were 9 (90-99), 10 (100) and 10 (100), respectively. Besides, the results for the “Herbicidal Effect Galium spurium” value in the series on Galium spurium (12.5 ga.i./ha), with Galium spurium (25.0 ga.i./ha) and with Galium spurium (50.0 ga.i./ha) were 9 (90-99), 9 (90-99) and 10 (100), respectively.

Take `COC(=O)C=Cc1cc(N2C(=O)c3ccccc3C2=O)c(F)cc1Cl` [Compound 16]: the “Herbicidal Effect Brassica juncea” value in the series with Brassica juncea [2] was 5 (91-100). For the same compound, the “Herbicidal Effect Ipompoea-purpurea” value in the series on Ipomoea purpurea is listed as 5 (91-100). The “Herbicidal Effect Echinochloa crus-galli” value in the series on Echinochloa crus-galli [3] is 3 (51-70). Also, the “Herbicidal Effect Alopeculus sequalis” value in the series with Alopeculus aequalis is 1 (6-30).

`CCOC(=O)C(Cl)Cc1cc(N2C(=O)c3ccccc3C2=O)c(F)cc1Cl` (stereo not shown) [Compound 5, ethyl 2-chloro-3-(2-chloro-4-fluoro-5-phthalimidophenyl)propionate]: the “Crop Injury Wheat” value in the series with wheat (12.5 ga.i./ha) was 0 (0); in the series with wheat (25.0 ga.i./ha), 0 (0); with wheat (50.0 ga.i./ha), 1 (1-9). The “Herbicidal Effect Scirpus juncoides” value with Scirpus juncoides was 4 (71-90). The “Herbicidal Effect Echinochloa crus-galli” value is 4 (71-90) with Echinochloa crus-galli [4] and 3 (51-70) with Echinochloa crus-galli [3]. The “Herbicidal Effect Rotala indica” value with Rotala indica is on record as 5 (91-100). In addition, in the series with Monochoria vaginalis, the “Herbicidal Effect Monochoria vaginalis” value is reported as 5 (91-100). For the same compound, the “Herbicidal Effect Brassica juncea” value in the series with Brassica juncea [2] is listed as 5 (91-100); in the series on Brassica juncea [1] (12.5 ga.i./ha) it was 10 (100); with Brassica juncea [1] (25.0 ga.i./ha), 10 (100); with Brassica juncea [1] (50.0 ga.i./ha), 10 (100). Besides, the “Herbicidal Effect Ipompoea-purpurea” value in the series on Ipomoea purpurea is listed as 5 (91-100). In addition, in the series with Alopeculus aequalis, the “Herbicidal Effect Alopeculus sequalis” value is listed as 1 (6-30). For the same compound, the “Herbicidal Effect Galium spurium” value in the series on Galium spurium (12.5 ga.i./ha), in the series on Galium spurium (25.0 ga.i./ha) and with Galium spurium (50.0 ga.i./ha) was 10 (100) each time.

Turning to `CC(C)CNC(=O)C(Cl)Cc1cc(N2C(=O)c3ccccc3C2=O)c(F)cc1Cl` (stereo not shown) [Compound 11], the “Herbicidal Effect Chenopodium album” value in the series with Chenopodium album is recorded as 5 (91-100). In addition, the “Herbicidal Effect Setaria viridis” value in the series on Setaria viridis is recorded as 4 (71-90). Besides, the “Herbicidal Effect Digitaria ciliaris” value in the series with Digitaria ciliaris was 4 (71-90). Also, in the series on Polygonum lapathifolium, the “Herbicidal Effect Polygonum lapathifolium” value is given as 5 (91-100). In the series on Brassica juncea [2], the “Herbicidal Effect Brassica juncea” value is 5 (91-100). For the same compound, the “Herbicidal Effect Ipompoea-purpurea” value with Ipomoea purpurea is given as 5 (91-100). Further, the “Herbicidal Effect Echinochloa crus-galli” value with Echinochloa crus-galli [3] is on record as 4 (71-90). Further, the “Herbicidal Effect Alopeculus sequalis” value in the series on Alopeculus aequalis is 4 (71-90).

For the compound `CCCNC(=O)C(Cl)Cc1cc(N2C(=O)c3ccccc3C2=O)c(F)cc1Cl` (stereo not shown) [Compound 10, 2-Chloro-3-(2-chloro-4-fluoro-5-phthalimidophenyl)-N-propylpropionamide], the “Herbicidal Effect Brassica juncea” value with Brassica juncea [2] is on record as 5 (91-100). Moreover, the “Herbicidal Effect Ipompoea-purpurea” value in the series with Ipomoea purpurea is 5 (91-100). In the series on Echinochloa crus-galli [3], the “Herbicidal Effect Echinochloa crus-galli” value is reported as 4 (71-90). For the same compound, in the series with Alopeculus aequalis, the “Herbicidal Effect Alopeculus sequalis” value was 3 (51-70).

Take `CCOC(=O)/C=C/c1cc(N2C(=O)c3ccccc3C2=O)c(F)cc1Cl` [Compound 17, Ethyl 3-(2-Chloro-4-fluoro-5-phthalimidophenyl)acrylate]: the “Herbicidal Effect Brassica juncea” value with Brassica juncea [2] is reported as 5 (91-100). Also, the “Herbicidal Effect Ipompoea-purpurea” value with Ipomoea purpurea was 5 (91-100). For the same compound, in the series on Echinochloa crus-galli [3], the “Herbicidal Effect Echinochloa crus-galli” value is recorded as 1 (6-30). Moreover, the “Herbicidal Effect Alopeculus sequalis” value with Alopeculus aequalis is given as 1 (6-30).
